These compounds were tested on DLD-1 BRCA2(−/−) Cell (assay: Cell viability assay (Resazurin) in DLD1-BRCA2 cells). Conditions: Homo sapiens, DLD-1, 336 h, 14 days, 1,500 cells/well, final DMSO 1%.
Type: cell-based
In short: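 DLD1-BRCA2 KG cells seeded at 1,500/well (parental 600/well) in RPMI-1640 with 10% FBS, compound added after 4 h (1% DMSO), media replaced every 3-4 days over 14 days at 37° C. Viability read by resazurin (0.1 mg/ml, 4 h) fluorescence at Ex/Em 560/590 nm; IC50 fitted.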

Compound | IC50
Cc1cc(C(F)(F)F)cc(N2C(=O)CC[C@H]2C(=O)N(CC#Cc2cncn2C)c2ccc(F)c(C)c2)n1 [Example 9, (S)-N-(4-fluoro-3-methylphenyl)-N-(3-(1-methyl-1H-imidazol-5-yl)prop-2-yn-1-yl)-1-(6-methyl-4-(trifluoromethyl)pyridin-2-yl)-5-oxopyrrolidine-2-carboxamide] | < 1000 nM
Cc1ccc(F)c(N(CC#Cc2cnc(N3CCOCC3)cn2)C(=O)[C@H]2CCS(=O)(=O)N2c2cc(C(F)(F)F)cc(C)n2)c1 [Example 41, (R)-N-(2-fluoro-5-methylphenyl)-2-(6-methyl-4-(trifluoromethyl)pyridin-2-yl)-N-(3-(5-morpholinopyrazin-2-yl)prop-2-yn-1-yl) isothiazolidine-3-carboxamide 1,1-dioxide] | > 5100 nM
CCN1CCN(c2cnc(C#CCN(C(=O)[C@@H]3CCC(=O)N3c3cc(C(F)(F)F)cc(C)n3)c3ccc(F)c(C)c3)cn2)CC1 [Example 11, (S)-N-(3-(5-(4-ethylpiperazin-1-yl)pyrazin-2-yl)prop-2-yn-1-yl)-N-(4-fluoro-3-methylphenyl)-1-(6-methyl-4-(trifluoromethyl)pyridin-2-yl)-5-oxopyrrolidine-2-carboxamide] | < 1000 nM
Cc1cc(C(F)(F)F)cc(N2[C@H](C(=O)N(CC#Cc3cc(C)c(N)c(C)n3)c3ccc(F)c(C)c3)CCS2(=O)=O)n1 [Example 91, (S)-N-(3-(5-amino-4,6-dimethylpyridin-2-yl)prop-2-yn-1-yl)-N-(4-fluoro-3-methylphenyl)-2-(6-methyl-4-(trifluoromethyl)pyridin-2-yl)isothiazolidine-3-carboxamide 1,1-dioxide] | 1100 to 5000 nM

The next lines start with the values.

IC50 | Compound
< 1000 nM | Cc1cc(C(F)(F)F)cc(N2[C@H](C(=O)N(CC#Cc3ncc(C(N)=O)cn3)c3ccc(F)c(C)c3)CCS2(=O)=O)n1 [Example 81, (S)-N-(3-(5-carbamoylpyrimidin-2-yl)prop-2-yn-1-yl)-N-(4-fluoro-3-methylphenyl)-2-(6-methyl-4-(trifluoromethyl)pyridin-2-yl)isothiazolidine-3-carboxamide 1,1-dioxide]
1100 to 5000 nM | Cc1cc(C(F)(F)F)cc(N2[C@H](C(=O)N(CC#Cc3cnc(N)cn3)c3ccc(F)c(C)c3)CCS2(=O)=O)n1 [Example 30, (S)-N-(3-(5-aminopyrazin-2-yl)prop-2-yn-1-yl)-N-(4-fluoro-3-methylphenyl)-2-(6-methyl-4-(trifluoromethyl)pyridin-2-yl)isothiazolidine-3-carboxamide 1,1-dioxide]
< 1000 nM | Cc1cc(C(F)(F)F)cc(N2[C@H](C(=O)N(CC#Cc3cccc(=O)n3C)c3ccc(F)c(C)c3)CCS2(=O)=O)n1 [Example 92, (S)-N-(4-fluoro-3-methylphenyl)-2-(6-methyl-4-(trifluoromethyl)pyridin-2-yl)-N-(3-(1-methyl-6-oxo-1,6-dihydropyridin-2-yl)prop-2-yn-1-yl)isothiazolidine-3-carboxamide 1,1-dioxide]
< 1000 nM | Cc1cc(C(F)(F)F)cc(N2[C@H](C(=O)N(CC#Cc3cnc(C(N)=O)nc3)c3ccc(F)c(C)c3)CCS2(=O)=O)n1 [Example 78, (S)-N-(3-(2-carbamoylpyrimidin-5-yl)prop-2-yn-1-yl)-N-(4-fluoro-3-methylphenyl)-2-(6-methyl-4-(trifluoromethyl)pyridin-2-yl)isothiazolidine-3-carboxamide 1,1-dioxide]
< 1000 nM | Cc1cc(C(F)(F)F)cc(N2[C@H](C(=O)N(CC#Cc3ccc(C(N)=O)cn3)c3ccc(F)c(C)c3)CCS2(=O)=O)n1 [Example 97, (S)-N-(3-(5-carbamoylpyridin-2-yl)prop-2-yn-1-yl)-N-(4-fluoro-3-methylphenyl)-2-(6-methyl-4-(trifluoromethyl)pyridin-2-yl)isothiazolidine-3-carboxamide 1,1-dioxide]
